# ChEMBL document CHEMBL5244210, “Drug discovery in tuberculosis. New drug targets and antimycobacterial agents” (Eur J Med Chem, 2018)
# How the values were obtained:
# [1] = system: Mycobacterium tuberculosis; test: Antibacterial activity against Mycobacterium tuberculosis H37Rv MTCC 300 assessed as bacterial growth inhibition by alamar blue assay; type: functional
# [2] = system: Mycobacterium tuberculosis; test: Antibacterial activity against Mycobacterium tuberculosis H37Rv assessed as bacterial growth inhibition incubated for 6 days by resazurin staining based assay; type: functional; settings: 144 h, time 6 day
# [3] = system: Mycobacterium tuberculosis; test: Antibacterial activity against Mycobacterium tuberculosis assessed as bacterial growth inhibition; type: functional
# [4] = system: Mycobacterium tuberculosis; test: Antibacterial activity against Mycobacterium tuberculosis MmpL3 assessed as bacterial growth inhibition by HTS assay; type: functional
# [5] = target: T1, Enoyl-[acyl-carrier-protein] reductase [NADH] (Mycobacterium tuberculosis) (UniProt P9WGR1); test: Inhibition of Mycobacterium tuberculosis InhA assessed as residence time
# T1 sequence (whole entry): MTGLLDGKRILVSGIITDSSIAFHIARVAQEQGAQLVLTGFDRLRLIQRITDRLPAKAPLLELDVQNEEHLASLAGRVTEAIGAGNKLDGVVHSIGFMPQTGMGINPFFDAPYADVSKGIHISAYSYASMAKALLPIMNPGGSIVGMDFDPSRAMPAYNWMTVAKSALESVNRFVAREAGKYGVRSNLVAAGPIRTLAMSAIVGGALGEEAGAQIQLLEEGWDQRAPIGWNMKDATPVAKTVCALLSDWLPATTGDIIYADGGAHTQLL
# [6] = system: Mycobacterium tuberculosis; test: Antibacterial activity against Mycobacterium tuberculosis H37Rv (ATCC 27294) assessed as bacterial growth inhibition by MABA assay; type: functional
# [7] = system: Mycobacterium tuberculosis; test: Antibacterial activity against wild type Mycobacterium tuberculosis H37Rv assessed as bacterial growth inhibition by alamar blue staining based assay; type: functional
# [8] = system: Mycobacterium tuberculosis; test: Antibacterial activity against Mycobacterium tuberculosis H37RV ATCC 27294 assessed as bacterial growth inhibition; type: functional
# [9] = system: Mycobacterium tuberculosis; test: Antibacterial activity against Mycobacterium tuberculosis assessed as bacterial growth inhibition by HTS assay; type: functional
# [10] = system: Mycobacterium tuberculosis; test: Antibacterial activity against wild type Mycobacterium tuberculosis H37Rv assessed as bacterial growth inhibition; type: functional, organism-based
# [11] = system: Mycobacterium tuberculosis; test: Antibacterial activity against Mycobacterium tuberculosis infected in mouse RAW264.7 cells assessed as bacterial growth inhibition by REMA assay; type: functional, organism-based
# [12] = system: Mycobacterium tuberculosis; test: Antibacterial activity against Mycobacterium tuberculosis H37Rv infected in mouse RAW264.7 cells assessed as bacterial growth inhibition by REMA assay; type: functional
# [13] = system: Mycobacterium tuberculosis; test: Antibacterial activity against Mycobacterium tuberculosis H37Rv infected in mouse RAW264.7 cells assessed as bacterial growth inhibition; type: functional
# [14] = Oral bioavailability in mouse; type: ADME, organism-based; settings: in vivo
# [15] = system: Mycobacterium tuberculosis; test: Antibacterial activity against wild type Mycobacterium tuberculosis H37Rv assessed as bacterial growth inhibition incubated for 6 days by HTS assay; type: functional; settings: 144 h, time 6 day
# [16] = system: Mycobacterium tuberculosis; test: Antibacterial activity against Mycobacterium tuberculosis H37Rv (ATCC 27294) assessed as bacterial growth inhibition incubated for 7 days by MABA assay; type: functional; settings: 168 h, time 7 day
# [17] = system: Mycobacterium tuberculosis; test: Antibacterial activity against Mycobacterium tuberculosis H37Rv infected in human THP-1 cells assessed as bacterial growth inhibition; type: functional
# [18] = system: Mycobacterium tuberculosis; test: Antibacterial activity against wild type Mycobacterium tuberculosis H37Rv infected in BALB/c mouse assessed as bacterial growth inhibition po administrated for 5 days a week via gavage for 4 weeks; type: functional; settings: 672 h
smiles,measurement,setting,value
O=C(Nc1nnc(-c2ccc([N+](=O)[O-])cc2)s1)C1CC(=O)N(c2ccccc2)C1 (stereo not drawn),MIC,[1],61 µM
c1cc2c(s1)CCOC21CCN(Cc2ccc3c(c2)OCCO3)CC1,MIC,[2],0.3 µM
CCc1ccc([C@H]2C[C@@H](C(F)(F)F)n3ncc(C(=O)NCc4ccc(OC)cc4)c3N2)cc1,MIC,[2],0.3 µM
CC[C@@H](CO)NCCN[C@@H](CC)CO [ETHAMBUTOL],MIC,[3],10 µM
CCCn1cnc2cc(NCc3ccc(Cl)cc3Cl)ccc21,MIC,[4],16 µM
CCc1ccc([C@H]2C[C@@H](C(F)(F)F)n3ncc(C(=O)NCc4ccc5c(c4)OCO5)c3N2)cc1,MIC,[2],0.16 µM
CCCCCCc1ccc(Oc2ccccc2C)c(O)c1,TIME,[5],0.4 h
same,MIC,[3],8.46 µM
Cc1ccc(-c2nc3ccc(C)cn3c2CC(=O)N(C)C)cc1 [ZOLPIDEM],MIC,[6],10 µM
C[C@H]1COC2(CCN(c3nc(=S)c4cc(C(F)(F)F)cc([N+](=O)[O-])c4s3)CC2)O1,MIC,[7],0.02 µM
OB1c2ccccc2N=C(S)N1c1cccnc1,MIC,[8],31.4 µM
Cc1c(CN2CCN(C)CC2)cc(-c2ccc(Cl)cc2)n1-c1ccc(Cl)cc1,MIC,[9],3.62 µM
CCc1ccn2c(C(=O)NCc3ccc(C)cc3)c(C)nc2c1,MIC,[6],0.004 µM
Cc1c(OCC(F)(F)F)ccnc1CSc1nc2ccccc2[nH]1 [LANSOPRAZOLE SULFIDE],IC50,[10],460 nM
same,IC50,[11],590 nM
same,MIC90,[12],1.13 µM
CCOC(=O)NC(=O)c1ccsc1NC(=O)c1nc2ccccc2s1,MIC,[3],0.027 µM
Cc1c(CN2CCOCC2)cc(-c2ccc(C(C)C)cc2)n1-c1ccc(F)cc1,MIC,[9],0.12 µM
CCc1nc2ccc(Cl)cn2c1C(=O)NCc1ccc(N2CCC(c3ccc(OC(F)(F)F)cc3)CC2)cc1 [TELACEBEC],MIC50,[10],0.0027 µM
same,MIC50,[13],0.00028 µM
same,bioavailability,[14],90%
CCCCCCc1ccc(Oc2ccccc2C#N)c(O)c1,TIME,[5],1.33 h
same,MIC,[3],11 µM
CC1(C)CCC(NC(=O)c2cc3c(F)cc(F)cc3[nH]2)CC1,MIC,[15],0.023 µM
O=C(C1CCN(c2nnc(-n3cccc3)s2)CC1)N1CCC(Cc2ccccc2)CC1,MIC,[3],4 µM
Cc1cn2c(C(=O)NCc3ccc(N4CCC(c5ccc(OC(F)(F)F)cc5)CC4)cc3)c(C)nc2s1,MIC,[16],0.0009 µM
CC1(C)CCC(NC(=O)c2cc3c(Cl)cc(Cl)cc3[nH]2)CC1,MIC,[15],0.015 µM
Cc1c(Cn2cc(C(=O)NCCO)c3ncccc32)ncnc1OC(F)F,MIC,[17],0.78 µM
CN(C)c1ccc(-c2nc3cc(F)c(-n4ccnc4)cc3n2Cc2ccccc2)cc1,MIC,[4],30.3 µM
O=c1nc(N2CCN(CC3CCCCC3)CC2)sc2c([N+](=O)[O-])cc(C(F)(F)F)cc12 [MACOZINONE],MIC,[10],0.19 ng/mL
same,MIC,[18],0.19 ng/mL
Fc1cc2nc(Cc3ccc(Cl)cc3)[nH]c2cc1-n1ccnc1,MIC,[4],76.5 µM
O=c1nc(N2CCN(CC3CCCCC3)CC2)sc2c(-n3cccc3)cc(C(F)(F)F)cc12,MIC,[10],0.34 µM
Cc1c(Cn2cc(C(=O)NCCO)c3ncccc32)ncnc1N(C)C,MIC,[17],0.5 µM
C[C@H]1COC2(CCN(c3nc(=O)c4cc(C(F)(F)F)cc([N+](=O)[O-])c4s3)CC2)O1 [BTZ-043],MIC,[10],0.00023 µM
same,MIC,[18],1 ng/mL
Cc1cn2c(C(=O)NCc3ccc(C(F)(F)F)cc3)c(C)nc2s1,MIC,[16],0.006 µM
Cc1c(OCC(F)(F)F)ccnc1C[S+]([O-])c1nc2ccccc2[nH]1 (stereo not drawn) [LANSOPRAZOLE],IC50,[10],2200 nM
C[C@H]1COC2(CCN(c3nc(=O)c4cc(C(F)(F)F)cc(-n5cccc5)c4s3)CC2)O1,MIC,[10],0.35 µM
Oc1cc(Cl)ccc1Oc1ccc(Cl)cc1Cl [TRICLOSAN],MIC,[3],138 µM
CC(C)=CCC/C(C)=C/CNCCNC1C2CC3CC(C2)CC1C3 (stereo not drawn) [SQ109],MIC,[3],0.78 µM
COc1ccc(CNc2nc3cc(C(F)(F)F)ccc3nc2C(=O)O)cc1,MIC,[10],3.1 µM
FC(F)(F)Oc1ccc(Oc2ccc(CN3CCC4(CC3)OCCc3sccc34)cc2)cc1,MIC,[2],0.06 µM
